In BindingDB's records for doi:10.1021/acs.jmedchem.9b01283 (Pharmaxis, 2019):

Biological target: Diamine oxidase AOC1 (Homo sapiens)
Assay: Inhibition of recombinant human DAO using putrescine as substrate preincubated with enzyme for 30 mins followed by substrate addition and measured every 2.5 mins for 30 mins by Amplex-Red oxidation assay

| IC50 [µM] | Compound |
| --- | --- |
| > 10 | Cc1c(-c2cccc(S(=O)(=O)N(C)C)c2)c2cc(C(=O)O)ccc2n1CC(F)=CCN |
| 3.98 | Cc1c(-c2cccc(S(=O)(=O)N(C)C)c2)c2ccccc2n1CC(F)=CCN |
